Data reported in article PMC9774648, “Synthesis, Physicochemical Properties and Molecular Docking of New Benzothiazole Derivatives as Antimicrobial Agents Targeting DHPS Enzyme” (Antibiotics, 2022).
In brackets after ≈: the same amount, converted by molar mass. Like-named read-outs stand apart in the source and are kept apart here.

Tests used:
S. aureus (ATCC: 6538) = assay: Agar well diffusion, inhibition zone, S. aureus; assay type: cell-based; settings: for zone of inhibition at 15000 µg/mL: Staphylococcus aureus, read-out: Diameter of the Inhibition Zone, S. aureus
S. mutans (ATCC: 25175) = assay: Agar well diffusion, inhibition zone, S. mutans; assay type: cell-based; settings: for zone of inhibition at 15000 µg/mL: Streptococcus mutans, read-out: Diameter of the Inhibition Zone, S. mutans
S. aureus = assay: MIC, twofold serial dilution, S. aureus; assay type: cell-based; settings: Staphylococcus aureus; twofold serial dilution in broth, 37 °C 16–20 h; read-out: The Minimum Inhibitory Concentration (MIC), S. aureus
Description: The new synthetic compounds, 6a–c, 12a–c, 14a–c, 16a–c and 19a–e, were tested in vitro to evaluate antibacterial activities against Gram-negative and Gram-positive bacteria, such as E. coli (ATCC: 3008), K. pneumonia (ATCC: 4415) and P. aeruginosa (ATCC: 27853), as an example for Gram-negative bacteria, as well as S. aureus (ATCC: 6538) and S. mutans (ATCC: 25175) for Gram-positive bacteria. The antifungal activities were evaluated also for the novel compounds in vitro against C. albicans (ATCC: 10231). The antibacterial and antifungal activities were determined by the agar-diffusion method using gentamicin, ampicillin and sulfadiazine, example of sulfa drug, as standard drugs against Gram-negative and Gram-positive, while nystatin was used as standard drug against the fungal strain. Table 1 summarizes the results for all tested compounds as the average diameter of inhibition zones of microbial growth around the discs in mm ± SD.
For each strain, three to five isolated colonies were selected from the fresh agar plate and were transferred into a tube containing 3–4 mL of sterile broth medium. The bacterial suspension was mixed well and incubated at 35–37 °C for 2–6 h. The turbidity of the bacterial suspension should be equal to or greater than the turbidity of a McFarland Standard 0.5. After that, 1 mg of the tested compound (antimicrobial agent) was dissolved in 1 mL DMSO and two-fold serial dilution was done using broth medium. A fixed volume of the prepared bacterial inoculum was added to each tube and incubated for at 37 °C 16–20 h. The MIC is defined as the lowest concentration of the antimicrobial agent that inhibits visible growth of the tested isolate as observed with the unaided eye.

S. mutans = assay: MIC, twofold serial dilution, S. mutans; assay type: cell-based; settings: Streptococcus mutans, read-out: The Minimum Inhibitory Concentration (MIC), S. mutans
[1] = test system: K. pneumonia (ATCC: 4415); assay: Agar well diffusion, inhibition zone, K. pneumonia; assay type: cell-based; settings: agar well diffusion, 15 mg/mL, 100 μL per well, 37 °C 24 h, mean ± SD, triplicate
[2] = test system: P. aeruginosa (ATCC: 27853); assay: Agar well diffusion, inhibition zone, P. aeruginosa; assay type: cell-based; settings: agar well diffusion, 15 mg/mL, 100 μL per well, 37 °C 24 h, mean ± SD, triplicate; for zone of inhibition at 15000 µg/mL: Pseudomonas aeruginosa, read-out: Diameter of the Inhibition Zone, P. aeruginosa
E. coli (ATCC: 3008) = assay: Agar well diffusion, inhibition zone, E. coli; assay type: cell-based; settings: agar well diffusion, 15 mg/mL, 100 μL per well, 37 °C 24 h, mean ± SD, triplicate
[3] = molecular target: DHPS enzyme (dihydropteroate synthase) (Bacillus anthracis, UniProt Q81VW8); assay: biochemical; settings: for inhibition at 0.1 µg/mL: 0.1 μg/mL; for inhibition at 0.1 µg/mL / inhibition at 1 µg/mL / inhibition at 10 µg/mL / inhibition at 100 µg/mL: read-out: Inhibition % against DHPS enzyme; for inhibition at 1 µg/mL: 1 μg/mL; for inhibition at 10 µg/mL: 10 μg/mL; for inhibition at 100 µg/mL: 100 μg/mL
Sequence of DHPS enzyme (dihydropteroate synthase) (Q81VW8 1-280): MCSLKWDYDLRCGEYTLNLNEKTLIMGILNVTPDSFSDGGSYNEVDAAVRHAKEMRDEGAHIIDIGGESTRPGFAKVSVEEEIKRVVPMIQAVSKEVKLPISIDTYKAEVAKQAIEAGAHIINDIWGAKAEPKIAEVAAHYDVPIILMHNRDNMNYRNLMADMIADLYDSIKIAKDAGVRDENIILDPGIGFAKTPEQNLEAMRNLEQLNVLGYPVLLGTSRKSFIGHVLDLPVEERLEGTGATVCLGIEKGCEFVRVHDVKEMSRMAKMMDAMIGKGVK

[4] = test system: C. albicans (ATCC: 10231); assay: Agar well diffusion, inhibition zone, C. albicans; assay type: cell-based; settings: 15 mg/mL, 100 μL per well, mean ± SD, triplicate; for zone of inhibition at 15000 µg/mL: Candida albicans, read-out: Diameter of the Inhibition Zone, C. albicans
P. aeruginosa = assay: MIC, twofold serial dilution, P. aeruginosa; assay type: cell-based; settings: Pseudomonas aeruginosa; twofold serial dilution in broth, 37 °C 16–20 h; read-out: The Minimum Inhibitory Concentration (MIC), P. aeruginosa
[5] = agar well diffusion, 15 mg/mL, 100 μL per well, 37 °C 24 h, mean ± SD, triplicate
[6] = twofold serial dilution in broth, 37 °C 16–20 h

| SMILES | MIC (S. aureus) | zone of inhibition at 15000 µg/mL (S. aureus (ATCC: 6538); [5]) | zone of inhibition at 15000 µg/mL (S. mutans (ATCC: 25175); [5]) | Diameter of the Inhibition Zone, K. pneumonia [1] | Diameter of the Inhibition Zone, P. aeruginosa [2] | Diameter of the Inhibition Zone, E. coli (E. coli (ATCC: 3008)) | melting point | Diameter of the Inhibition Zone, S. mutans (S. mutans (ATCC: 25175); [5]) | other results |
| --- | --- | --- | --- | --- | --- | --- | --- | --- | --- |
| CC1(C)S[C@@H]2[C@H](NC(=O)[C@H](N)c3ccccc3)C(=O)N2[C@H]1C(=O)O [Ampicillin, reference compound] | 179 µM (≈ 62.5 µg/mL) |  |  |  |  |  |  |  | zone of inhibition at 15000 µg/mL (S. aureus (ATCC: 6538); 24 h): 22 ± 0.1 mm; zone of inhibition at 15000 µg/mL (S. mutans (ATCC: 25175); 24 h): 30 ± 0.5 mm; MIC (S. mutans): 179 µM (≈ 62.5 µg/mL) |
| Nc1c(C(=O)Nc2ccccc2)cc(-c2nc3ccccc3s2)c(=O)n1NS(=O)(=O)c1ccc(Cl)cc1 [Compound 6a, 2-Amino-5-(benzo[d]thiazole-2-yl)-1-(4-chlorophenylsulfonamido)-6-oxo-N-phenyl-1,6-dihydropyridine-3–carboxamide] | 906 µM (≈ 500 µg/mL) | 19.6 ± 0.6 mm | 12.3 ± 0.6 mm | ^a - | - | - |  |  |  |
| Nc1c(C(=O)Nc2ccc(Cl)cc2)cc(-c2nc3ccccc3s2)c(=O)n1NS(=O)(=O)c1ccc(Cl)cc1 [Compound 6b, 2-Amino-5-(benzo[d]thiazole-2-yl)-N-(4-chlorophenyl)-1-(4-chlorophenylsulfonamido)-6-oxo-1,6-dihydropyridine-3–carboxamide] | 1700 µM (≈ 1000 µg/mL) | 18.3 ± 0.6 mm | 15.3 ± 0.5 mm | - | - | - | 334 to 336 °C |  | MIC (S. mutans; [6]): 1700 µM (≈ 1000 µg/mL) |
| Cc1ccc(NC(=O)c2cc(-c3nc4ccccc4s3)c(=O)n(NS(=O)(=O)c3ccc(Cl)cc3)c2N)cc1 [Compound 6c, 2-Amino-5-(benzo[d]thiazole-2-yl)-1-(4-chlorophenylsulfonamido)-6-oxo-N-(p-tolyl)-1,6-dihydropyridine-3–carboxamide] |  | 10.6 ± 0.5 mm | 10.6 ± 0.5 mm | - | - | - | 302 to 305 °C |  |  |
| O=c1[nH]c(-c2ccc(Cl)cc2)ccc1-c1nc2ccccc2s1 [Compound 12a, 3-(Benzo[d]thiazol-2-yl)-6-(4-chlorophenyl)pyridin-2(1H)-one] | 369 µM (≈ 125 µg/mL) | 19.6 ± 0.6 mm |  | - | - | - |  | - | IC50 [3]: 83.6 µM; inhibition at 0.1 µg/mL [3]: 11%; inhibition at 1 µg/mL [3]: 27%; inhibition at 10 µg/mL [3]: 44%; inhibition at 100 µg/mL [3]: 58% |
| O=c1[nH]c(-c2ccc(Br)cc2)ccc1-c1nc2ccccc2s1 [Compound 12b, 3-(Benzo[d]thiazol-2-yl)-6-(4-bromophenyl)pyridin-2(1H)-one] | 2610 µM (≈ 1000 µg/mL) | 17.6 ± 0.6 mm |  | - | - | - | 345 to 346 °C | - |  |
| COc1ccc(-c2ccc(-c3nc4ccccc4s3)c(=O)[nH]2)cc1 [Compound 12c, 3-(Benzo[d]thiazol-2-yl)-6-(4-methoxyphenyl)pyridin-2(1H)-one] |  | 15.6 ± 0.5 mm | 11.3 ± 0.5 mm | - | - | - |  |  |  |
| Cc1ccc(S(=O)(=O)NNC(=O)/C(=C/c2ccc(F)cc2)c2nc3ccccc3s2)cc1 [Compound 14a] | 1070 µM (≈ 500 µg/mL) | 19.3 ± 0.6 mm | 18.3 ± 0.6 mm | - | - | - | 201 to 202 °C |  | zone of inhibition at 15000 µg/mL [4]: 20.6 ± 0.6 mm; MIC (S. mutans; [6]): 2140 µM (≈ 1000 µg/mL) |
| Cc1ccc(/C=C(/C(=O)NNS(=O)(=O)c2ccc(C)cc2)c2nc3ccccc3s2)cc1 [Compound 14c, N-(2-(Benzo[d]thiazole-2-yl)-3-(p-tolyl)acryloyl)-4-methylbenzene-sulfonohydrazide] | 135 µM (≈ 62.6 µg/mL) | 30.3 ± 0.6 mm | 20.3 ± 0.6 mm | - | - | - | 195 to 196.5 °C |  | zone of inhibition at 15000 µg/mL [4]: 11.3 ± 0.5 mm; MIC (S. mutans; [6]): 539 µM (≈ 250 µg/mL); IC50 [3]: 56.4 µM; inhibition at 0.1 µg/mL [3]: 8.6%; inhibition at 1 µg/mL [3]: 21%; inhibition at 10 µg/mL [3]: 46%; inhibition at 100 µg/mL [3]: 59% |
| O=C(NNS(=O)(=O)c1ccccc1)/C(=N/Nc1ccccc1)c1nc2ccccc2s1 [Compound 19a, N′-(2-(Benzo[d]thiazol-2-yl)-2-(2-phenylhydrazono)acetyl)benzenesulfono-hydrazide] |  |  |  | - | - | - | 246 to 248.6 °C | - | Diameter of the Inhibition Zone, S. aureus (S. aureus (ATCC: 6538); [5]): -; zone of inhibition at 15000 µg/mL [4]: 10.3 ± 0.5 mm |
| O=C(NNS(=O)(=O)c1ccccc1)C(=NNc1ccc(Cl)cc1)c1nc2ccccc2s1 [Compound 19b, N′-(2-(Benzo[d]thiazol-2-yl)-2-(2-(4-chlorophenyl)hydrazono)acetyl)benzene-sulfonohydrazide] |  | 11.6 ± 0.5 mm |  | - | - | - | 265 to 267 °C | - |  |
| Cc1ccc(NN=C(C(=O)NNS(=O)(=O)c2ccccc2)c2nc3ccccc3s2)cc1 [Compound 19c, N′-(2-(Benzo[d]thiazol-2-yl)-2-(2-(4-methylphenyl)hydrazono)acetyl)benzene-sulfonohydrazide] |  | 11 ± 1 mm |  | - |  | - | 262 to 263 °C | - | zone of inhibition at 15000 µg/mL [2]: 16 ± 1 mm; zone of inhibition at 15000 µg/mL [4]: 11.6 ± 0.5 mm; MIC (P. aeruginosa): 2150 µM (≈ 1000 µg/mL) |
| Cc1ccc(S(=O)(=O)NNC(=O)/C(=N/Nc2ccc(Cl)cc2)c2nc3ccccc3s2)cc1 [Compound 19d, N′-(2-(Benzo[d]thiazol-2-yl)-2-(2-(4-chlorophenyl)hydrazono)acetyl)-4-methylbenzenesulfono-hydrazide] |  |  |  | - |  | - | 280 to 281 °C | - | Diameter of the Inhibition Zone, S. aureus (S. aureus (ATCC: 6538); [5]): -; zone of inhibition at 15000 µg/mL [2]: 21.6 ± 0.6 mm; MIC (P. aeruginosa): 500 µM (≈ 250 µg/mL) |
| Cc1ccc(N/N=C(/C(=O)NNS(=O)(=O)c2ccc(C)cc2)c2nc3ccccc3s2)cc1 [Compound 19e, N′-(2-(Benzo[d]thiazol-2-yl)-2-(2-(4-methylphenyl)hydrazono)acetyl)-4-methylbenzenesulfono-hydrazide] |  |  |  | - | - | - | 285 to 286 °C | - | Diameter of the Inhibition Zone, S. aureus (S. aureus (ATCC: 6538); [5]): - |
| C[C@@H]1[C@H](O)[C@@H](C)/C=C/C=C/CC/C=C/C=C/C=C/C=C/C(O[C@H]2O[C@H](C)[C@@H](O)[C@H](N)[C@@H]2O)CC2O[C@](O)(CC(O)C(O)CCC(O)CC(O)CC(O)CC(=O)O[C@H]1C)CC(O)C2C(=O)O (stereo partly drawn) [Nystatin, reference compound] |  |  |  |  |  |  |  |  | Diameter of the Inhibition Zone, C. albicans [4]: 21.0 ± 0.5 mm |
